From patent publication US20090253669A1, “Substituted Sulfonamide Compounds” (GRUENENTHAL GmbH, priority 2008, published 2009) come the findings set out here.

Read-outs that look alike come from different tables or passages of the source.

The target of test [1] is T1, B1R receptor of the rat (rB1R) (Rattus norvegicus, UniProt P97583).
T1 construct: host or cells: CHO K1 cells
T1 sequence (P97583 1-337): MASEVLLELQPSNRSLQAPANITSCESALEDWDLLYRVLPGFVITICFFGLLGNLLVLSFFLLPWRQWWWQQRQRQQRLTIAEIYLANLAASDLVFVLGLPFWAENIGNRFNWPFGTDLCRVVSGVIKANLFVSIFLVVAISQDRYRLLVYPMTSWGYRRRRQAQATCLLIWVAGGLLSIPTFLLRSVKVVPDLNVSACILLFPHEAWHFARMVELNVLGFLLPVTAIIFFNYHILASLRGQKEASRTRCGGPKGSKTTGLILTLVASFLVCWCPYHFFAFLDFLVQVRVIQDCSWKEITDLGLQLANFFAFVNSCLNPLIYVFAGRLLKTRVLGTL
In words: FLIPR Ca2+ assay on rB1R-transfected CHO K1 cells, antagonistic action. It is filed as cell-based. Conditions: for rB1R [10 μM] % inhibition: 10 μM test substance.

Test [2] deals with T2, human B1R receptor (hB1R) (Homo sapiens, UniProt P46663).
T2 construct: host or cells: CHO K1 cells
T2 sequence (P46663 1-353): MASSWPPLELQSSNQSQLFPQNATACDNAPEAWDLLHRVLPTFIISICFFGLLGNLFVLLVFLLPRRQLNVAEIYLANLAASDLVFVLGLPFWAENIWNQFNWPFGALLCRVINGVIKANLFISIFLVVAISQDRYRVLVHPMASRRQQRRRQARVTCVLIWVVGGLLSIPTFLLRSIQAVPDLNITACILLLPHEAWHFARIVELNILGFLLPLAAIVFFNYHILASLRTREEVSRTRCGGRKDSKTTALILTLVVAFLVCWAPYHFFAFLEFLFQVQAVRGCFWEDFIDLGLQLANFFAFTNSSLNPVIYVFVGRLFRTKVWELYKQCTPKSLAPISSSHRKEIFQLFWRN
Kind of test: FLIPR Ca2+ assay on hB1R-transfected CHO K1 cells, antagonistic action. It counts as cell-based. As to conditions: for hB1R [10 μM] % inhibition: 10 μM test substance.

[3] abbreviates: CHO-K1, 10 μM test substance, agonist Des-Arg9-bradykinin 100 nM, % of maximum achievable inhibition, read-out: rB1R [10 μM] % inhibition.
Setting [4] is: CHO-K1, 10 μM test substance, agonist Lys-Des-Arg9-bradykinin 0.5 nM, % of maximum achievable inhibition, read-out: hB1R [10 μM] % inhibition.
Where [5] appears, read: agonist Des-Arg9-bradykinin 100 nM, % of maximum achievable inhibition.
Where [6] appears, read: agonist Lys-Des-Arg9-bradykinin 0.5 nM, % of maximum achievable inhibition.

As to `COc1cc(C)c(S(=O)(=O)N2CCCC[C@H]2COCC(=O)N(C)CCC2CCC(c3ccccc3)(N3CCC3)CC2)c(C)c1` (stereo partly drawn) [Compound 201, (S)-N-(2-(4-(azetidin-1-yl)-4-phenylcyclohexyl)ethyl)-2-((1-(4-methoxy-2,6-dimethylphenylsulfonyl)piperidin-2-yl)methoxy)-N-methylacetamide], the inhibition at 10 µM is 97% in test [1] (setting [3]) and 100% in test [2] (setting [4]).
As for `COc1cc(C)c(S(=O)(=O)N(C)CCOCC(=O)N(C)CCC2CCC(c3ccccc3)(N3CCCC3)CC2)c(C)c1` (stereo not shown) [Compound 34, 2-(2-(4-methoxy-N,2,6-trimethylphenylsulfonamido)ethoxy)-N-methyl-N-(2-(4-phenyl-4-(pyrrolidin-1-yl)cyclohexyl)ethyl)acetamide], the figures for the inhibition at 10 µM in test [1] (setting [3]) and in test [2] (setting [4]) were 101% and 104%, respectively.
For `CN(C)C1(c2cccc(F)c2)CCC(NC(=O)COCCN(C)S(=O)(=O)c2ccc(Cl)cc2Cl)CC1` (stereo not shown) [Compound 21, 2-(2-(2,4-dichloro-N-methylphenylsulfonamido)ethoxy)-N-(4-(dimethylamino)-4-(3-fluorophenyl)cyclohexyl)acetamide], in that order: 67% and 29%.
For `CN1CCN(C2(c3ccccc3)CCN(C(=O)COCC3CCc4ccccc4N3S(=O)(=O)c3ccc(Cl)c(Cl)c3)CC2)CC1` (stereo not shown) [Compound 115, 2-((1-(3,4-dichlorophenylsulfonyl)-1,2,3,4-tetrahydroquinolin-2-yl)methoxy)-1-(4-(4-methylpiperazin-1-yl)-4-phenylpiperidin-1-yl)ethanone], in that order: 72% and 71%.
The like results for `Cc1cc(S(=O)(=O)N2CCCCC2CCC(=O)N2CCC(CCc3ccccc3)(N(C)C)CC2)c(C)cc1Cl` (stereo not shown) [Compound 137, 3-(1-(4-chloro-2,5-dimethylphenylsulfonyl)piperidin-2-yl)-1-(4-(dimethylamino)-4-phenethylpiperidin-1-yl)propan-1-one] were, in that order, 30% and 104%.
With `COc1cc(C)c(S(=O)(=O)N2CCCCC2COCC(=O)N(C)CC2CCC(CCc3ccccc3)(N3CCN(C)CC3)CC2)c(C)c1` (stereo not shown) [Compound 144, 2-((1-(4-methoxy-2,6-dimethylphenylsulfonyl)piperidin-2-yl)methoxy)-N-methyl-N-((4-(4-methylpiperazin-1-yl)-4-phenethylcyclohexyl)methyl)acetamide], the inhibition at 10 µM turned out to be 111% in test [1] (setting [3]) and 103% in test [2] (setting [4]).
For `COc1cc(C)c(S(=O)(=O)N2CCCCC2COCC(=O)N(C)CC2CCC(c3ccccc3)(N3CCCC3)CC2)c(C)c1` (stereo not shown) [Compound 66, 2-((1-(4-methoxy-2,6-dimethylphenylsulfonyl)piperidin-2-yl)methoxy)-N-methyl-N-((4-phenyl-4-(pyrrolidin-1-yl)cyclohexyl)methyl)acetamide], in that order: 100% and 102%.
The like results for `CN1CCN(C2(Cc3ccccc3)CCC(CN(C)C(=O)COC3CCCN(S(=O)(=O)c4c(Cl)cc(Cl)cc4Cl)C3)CC2)CC1` (stereo not shown) [Compound 175, N-((4-benzyl-4-(4-methylpiperazin-1-yl)cyclohexyl)methyl)-N-methyl-2-(1-(2,4,6-trichlorophenylsulfonyl)piperidin-3-yloxy)acetamide] were, in that order, 77% and 97%.
As for `COc1cc(C)c(S(=O)(=O)N2CCCC2COCC(=O)NCC2CCC(c3ccccc3)(N3CCOCC3)CC2)c(C)c1` (stereo not shown) [Compound 152, 2-((1-(4-methoxy-2,6-dimethylphenylsulfonyl)pyrrolidin-2-yl)methoxy)-N-((4-morpholino-4-phenylcyclohexyl)methyl)acetamide], the figures for the inhibition at 10 µM in test [1] (setting [3]) and in test [2] (setting [4]) were 102% and 84%, respectively.
As to `COc1cc(C)c(S(=O)(=O)N2CCCCC2COCC(=O)N(C)CCCC2CCC(c3ccccc3)(N3CCCC3)CC2)c(C)c1` (stereo not shown) [Compound 32, 2-((1-(4-methoxy-2,6-dimethylphenylsulfonyl)piperidin-2-yl)methoxy)-N-methyl-N-(3-(4-phenyl-4-(pyrrolidin-1-yl)cyclohexyl)propyl)acetamide], the inhibition at 10 µM in test [1] (setting [3]) is 102%; in test [2] (setting [4]), 104%.
The like results for `COc1cc(C)c(S(=O)(=O)N2CCCCC2COCC(=O)N(C)CCCC2CCC(Cc3ccccc3)(N3CCCC3)CC2)c(C)c1` (stereo not shown) [Compound 88, N-(3-(4-benzyl-4-(pyrrolidin-1-yl)cyclohexyl)propyl)-2-((1-(4-methoxy-2,6-dimethylphenylsulfonyl)piperidin-2-yl)methoxy)-N-methylacetamide] were, in that order, 98% and 101%.
As to `COc1cc(C)c(S(=O)(=O)N(C)CCOCC(=O)NC2CCC(Cc3ccccc3)(N3CCCC3)CC2)c(C)c1` (stereo not shown) [Compound 170, N-(4-benzyl-4-(pyrrolidin-1-yl)cyclohexyl)-2-(2-(4-methoxy-N,2,6-trimethylphenylsulfonamido)ethoxy)acetamide], the inhibition at 10 µM in test [1] (setting [3]) came out at 84%; in test [2] (setting [4]), 104%.
Consider `COc1cc(C)c(S(=O)(=O)N2CCCCC2COCC(=O)N2CCC(c3cccc(F)c3)(N3CCN(C)CC3)CC2)c(C)c1` (stereo not shown) [Compound 67, 1-(4-(3-fluorophenyl)-4-(4-methylpiperazin-1-yl)piperidin-1-yl)-2-((1-(4-methoxy-2,6-dimethylphenylsulfonyl)piperidin-2-yl)methoxy)ethanone], for which, in test [1] (setting [5]), the “rB1R [10 μM] % inhibition” value is 100%. Further, in test [2] (setting [6]), the “hB1R [10 μM] % inhibition” value was determined as 101%.
In the case of `COc1cc(C)c(S(=O)(=O)N2CCCCC2COCC(=O)N2CCC(c3ccccc3)(N(C)C)CC2)c(C)c1` (stereo not shown) [Compound 75, 1-(4-(dimethylamino)-4-phenylpiperidin-1-yl)-2-((1-(4-methoxy-2,6-dimethylphenylsulfonyl)piperidin-2-yl)methoxy)ethanone], in test [1] (setting [5]), the “rB1R [10 μM] % inhibition” value is reported as 99%. Moreover, in test [2] (setting [6]), the “hB1R [10 μM] % inhibition” value came out at 103%.
Turning to `COc1cc(C)c(S(=O)(=O)N2CCCCC2COCCC(=O)N2CCC(c3cccc(F)c3)(N3CCN(C)CC3)CC2)c(C)c1` (stereo not shown) [Compound 226, 1-(4-(3-Fluorophenyl)-4-(4-methylpiperazin-1-yl)piperidin-1-yl)-3-((1-(4-methoxy-2,6-dimethylphenylsulfonyl)piperidin-2-yl)methoxy)propan-1-one], the inhibition at 10 µM in test [1] (setting [3]) and in test [2] (setting [4]) was 100% in each case.
On to `COc1cc(C)c(S(=O)(=O)N2CCCC2COCC(=O)NC2CCC(c3ccccc3)(N3CCCC3)CC2)c(C)c1` (stereo not shown) [Compound 145, 2-((1-(4-methoxy-2,6-dimethylphenylsulfonyl)pyrrolidin-2-yl)methoxy)-N-(4-phenyl-4-(pyrrolidin-1-yl)cyclohexyl)acetamide], for which the inhibition at 10 µM in test [1] (setting [3]) amounted to 110%; in test [2] (setting [4]), 92%.
For `CNC1(c2ccncc2)CCN(C(=O)COCCN(C)S(=O)(=O)c2c(C)cc(OC)cc2C)CC1` [Compound 209, 4-Methoxy-N,2,6-trimethyl-N-(2-(2-(4-(methylamino)-4-(pyridin-4-yl)piperidin-1-yl)-2-oxoethoxy)ethyl)benzenesulfonamide], the inhibition at 10 µM was found to be 99% in test [1] (CHO-K1, read-out: rB1R [10 μM] % inhibition) and 100% in test [2] (CHO-K1, read-out: hB1R [10 μM] % inhibition).

Usually inhibition stands for the drop in the measured response relative to a control, in per cent.
